This is an account of results in US9835629B2, “Methods and reagents for biomolecule labeling, enrichment and gentle elution” (Pierce Biotechnology, Inc., priority 2012, dated 2017).

Experiment [1] has as its system anti-TMT™ antibody. Nature of the experiment: surface plasmon resonance competitive elution of anti-TMT antibody bound to a TMT-labeled surface. The format is binding, mice. The conditions noted are these: washing in μM to mM concentrations, room temperature. As for the experimental part: (§1) As the protein is labeled at nearly all amine sites, more sites on the protein are likely bound to the resin and more competitor reagent is necessary to elute the bound protein (FIG. 3B).
For total cysteine alkylation, cell lysates and purified proteins were denatured, reduced, and labeled with excess iodoTMTzero or iodoTMTsixplex reagents prior to enzymatic digestion. For cysteine S-nitrosylation quantitation, samples were treated with nitrosylation donor agents (e.g. GSH-NO) and alkylated with methyl methanethiosulfonate (MMTS) to block unmodified sulfhydryl groups. […] An anti-TMT antibody resin was used for labeled peptide enrichment. Peptide samples were analyzed using a Thermo Scientific LTQ™ ORBITRAP XL mass spectrometer. Data were analyzed using Thermo Scientific PROTEOME DISCOVERER 1.3 software. Elution buffer was evaluated by surface plasmon resonance (SPR) using a TMT-derivatized CM5 chip on a GE Healthcare BIACORE 3000 instrument.
In general terms: Surface plasmon resonance follows binding to a sensor surface in real time, without labels.

Experiment [2] concerns anti-TMT™ antibody. Nature of the experiment: enrichment and elution of S-nitrosylated, iodoTMT-labeled peptides with anti-TMT antibody. On the set-up: species or system mice. Particulars: in vitro S-nitrosylated cell lysate. As for the experimental part: Peptides were washed with Tris buffered saline (TBS), […] detergent (Waters), or CHAPS detergent and eluted with 0.4% trifluoracetic acid (pH about 2), or washed with TBS and water prior to elution with DMP at the indicated concentrations and pH. Eluted peptides were analyzed by LC-MS/MS on a Thermo Scientific ORBITRAP XL and data was interpreted with Thermo Scientific PROTEOME DISCOVERER 1.3 to identify the eluted peptides and the number of iodoTMT labeled peptides specifically eluted (percentage shown above each bar). […] These peptide samples were enriched with the anti-TMT antibody, and samples of the load, the flowthrough, and the non-specific and specific elutions were assessed for peptide recovery and specificity.
The cysteine-reactive […] tags and affinity enrichment reagents are used for the enrichment, detection, and quantification of low abundance protein modifications. […] These peptide samples were then enriched with the anti-TMT™ antibody, and a sample of the load, the flowthrough, and the non-specific and specific elutions were assessed for peptide recovery and specificity (FIG. 4B). […]
For total cysteine alkylation, cell lysates and purified proteins were denatured, reduced, and labeled with excess iodoTMTzero or iodoTMTsixplex reagents prior to enzymatic digestion. […] Peptide samples were analyzed using a Thermo Scientific LTQ™ ORBITRAP XL mass spectrometer. […]

In experiment [3] the test system is anti-TMT immobilized antibody resin. Description: elution of iodoTMT-labeled peptides of a cell lysate from anti-TMT resin, LC-MS/MS. Also noted: species or system mice. As to the method: Peptides were washed with Tris buffered saline (TBS), […] detergent (Waters), or CHAPS detergent and eluted with 0.4% trifluoracetic acid (pH about 2), or washed with TBS and water prior to elution with DMP at the indicated concentrations and pH. Eluted peptides were analyzed by LC-MS/MS on a Thermo Scientific ORBITRAP XL and data was interpreted with Thermo Scientific PROTEOME DISCOVERER 1.3 to identify the eluted peptides and the number of iodoTMT labeled peptides specifically eluted (percentage shown above each bar). In FIG. 4B, a cell lysate was S-nitrosylated in vitro with nitroglutathione, the free thiols were irreversibly alkylated with iodoacetamide, the nitroso groups were reduced and selectively released with ascorbic acid, the newly exposed cysteines were irreversibly alkylated with iodoTMT, and the samples were then reduced to remove disulfide linkages, alkylated with iodoacetamide, and digested with trypsin. These peptide samples were enriched with the anti-TMT antibody, and samples of the load, the flowthrough, and the non-specific and specific elutions were assessed for peptide recovery and specificity.
Cell lysates were labeled with an irreversible cysteine-reactive iodoacetyl TMT® reagent, digested, and then captured with the anti-TMT™ resin. The bound peptides were eluted non-specifically with different pH and detergent conditions or specifically with different concentrations and pH of DMP elution reagent (FIG. 4A). […] As DMP is not a biological molecule, there is no interference from endogenous levels. In contrast, biotinylated molecules are more difficult to recover and may result in the enrichment of interfering endogenously biotinylated molecules.

In another experiment the test system is Anti-TMT™ antibody resin. Nature of the experiment: elution of TMT-labeled protein from anti-TMT antibody resin. On the set-up: species or system mice. Particulars: micromolar to millimolar, intact protein labeled with amine-reactive TMT.
Description: as §1

Setting [4] is: iodoacetyl TMT-labeled cell lysate peptides.

Regarding `C[C@@H]1CCC[C@H](C)N1` [DMP, cis-2,6-dimethyl piperidine], the “elution of bound anti-TMT antibody from TMT-labeled surface” value with anti-TMT™ antibody [1] was “elutes bound antibody within minutes”. Moreover, in the experiment on anti-TMT™ antibody [2] (specific elution), the “more peptides yielded than a low pH elution” value is “approximately 50%”. For the same compound, the “specificity of the enrichment of iodoTMT-labeled peptides” value with anti-TMT™ antibody [2] (specific elution (6% with low pH elution)) is given as 21%. Further, in experiment [3] (10 mM, high pH), the “elution efficiency at high pH” value is “even more efficient” and the “specificity of elution at high pH” value was “lower specificity of elution”. Also, in experiment [3] (setting [4]), the “number of peptides eluted versus non-specific elution conditions” value was “over 100 times” and the specificity of elution result was “greater than 90%”. Moreover, in the experiment on Anti-TMT™ antibody resin, the “elution of bound TMT-labeled protein from anti-TMT antibody resin” value was “efficiently eluted”.
